In patent US20080131432A1, “Method of treating the chemotoxic effects of chemotherapeutic drugs on brain tissue” (University of Kentucky Research Foundation, priority 2005, published 2008):
“Also recorded” adds a separate entry of the source. Counter-ions that a name gives are not always drawn.

Tested on: MnSOD
Experiment: Nitration of MnSOD (immunoprecipitation and western blot)
Format: in vivo, mouse
Settings: hydrochloride
Description: Solubilized isolated mitochondrial proteins (500 μg) in 500 μL RIPA buffer (9.1 mM Na2HPO4, 1.7 mM NaH2PO4, 150 mM NaCl, 0.5% sodium deoxycholate, 1% v/v Nonidet P40, 0.1% SDS, pH 7.2) were incubated for 16 hours at 4° C. with 10 μg/mL anti-nitrotyrosine antibody (Cayman Chemical, Ann Arbor, Mich., USA) or polyclonal anti-MnSOD antibody (Upstate Biotechnology). Immune complexes were precipitated with 50 μL protein A/G-Agarose. Immunocomplexes were collected by centrifugation at 1500 g for 5 minutes at 4° C., and then washed four times with RIPA buffer. Immunoprecipitated samples were recovered by resuspending in 50 μL 2×sample loading buffer, heated to 95° C. for 5 minutes, and immediately fractionated by reducing SDS-PAGE in 12.5% gels. […] Immunoreactivities of the MnSOD nitrated protein bands were detected by ECL (Amersham Phamacia Biotech) as described by the manufacturer. Nitration of MnSOD was quantified using an akaline phosphatase-linked secondary antibody (Sigma), as described previously (Sultana et al. 2004), and evaluated by densitometric analysis used a Bio-Rad densitometer (Bio-Rad Laboratories, Hercules, Calif., USA).

COc1cccc2c1C(=O)c1c(O)c3c(c(O)c1C2=O)C[C@@](O)(C(=O)CO)C[C@@H]3O[C@H]1C[C@H](N)[C@H](O)[C@H](C)O1 [ADR, Doxorubicin hydrochloride]
Expression of immunoprecipitated MnSOD protein, control vs ADR-treated brain mitochondria (immunoprecipitation with anti-MnSOD antibody): no difference in expression; also recorded: No significant difference | Nitrated MnSOD (nitrotyrosine in MnSOD) in brain mitochondria (wild-type mice, 3 hours after ADR 20 mg/kg): an increase of nitrated MnSOD; also recorded: significant increase in nitration of MnSOD; also recorded: significantly increased protein nitration
